Results reported in publication PMC8370248, “Key Metabolic Enzymes Involved in Remdesivir Activation in Human Lung Cells” (Antimicrobial Agents and Chemotherapy, 2021).
Values joined by “and” are separate entries in the source; they are usually repeats but may differ in a detail not shown here. Identical values can stand only once.

Assays:
CES1b = biological target: T1, CES1b (Homo sapiens, UniProt P23141); experiment: CES1b-catalyzed hydrolysis of RDV and control (substrate disappearance, LC-MS); format: in vitro ADME
T1 construct: purchased Corning Incorporated (Corning, NY); host or cells: baculovirus-infected insect cells (microsomal fraction, Supersomes)
T1 sequence (P23141 18-567): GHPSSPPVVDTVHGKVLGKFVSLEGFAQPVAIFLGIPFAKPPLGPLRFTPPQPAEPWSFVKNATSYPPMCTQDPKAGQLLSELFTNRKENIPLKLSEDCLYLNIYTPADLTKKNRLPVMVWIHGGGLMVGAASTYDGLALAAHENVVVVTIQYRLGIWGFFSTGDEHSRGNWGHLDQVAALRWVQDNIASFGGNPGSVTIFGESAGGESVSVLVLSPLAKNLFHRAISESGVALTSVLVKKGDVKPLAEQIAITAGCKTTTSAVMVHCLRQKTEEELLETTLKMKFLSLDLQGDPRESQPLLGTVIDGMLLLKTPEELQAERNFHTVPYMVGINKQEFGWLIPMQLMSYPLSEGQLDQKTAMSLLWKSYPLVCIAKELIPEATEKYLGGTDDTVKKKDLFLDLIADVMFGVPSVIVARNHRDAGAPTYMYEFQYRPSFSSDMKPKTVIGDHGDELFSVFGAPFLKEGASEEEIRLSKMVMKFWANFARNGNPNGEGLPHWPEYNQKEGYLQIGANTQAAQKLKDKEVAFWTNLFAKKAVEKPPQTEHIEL
Procedure: (§1) The catalytic activity of carboxylesterase 1b (CES1b), carboxylesterase 1c (CES1c), CES2, and CatA toward RDV hydrolysis was measured using protein-enriched subcellular fraction (CES isozymes) or recombinant proteins (CatA). The reaction rates were determined by monitoring the disappearance of RDV using a liquid chromatography-mass spectrometry (LC-MS) method.
(§2) RDV or positive-control substrates (oseltamivir for CES1 or procaine for CES2) were incubated with individual Supersome preparations (final CES concentration, 1.5 mg/ml) in 0.1 M potassium phosphate buffer (pH 7.4) at 37°C. Substrates were added to a final concentration of 1 μM to initiate the reaction. The final incubation volume was 250 μl. Aliquots were removed after incubation for 0, 10, 30, 60, and 120 min. The reactions were stopped by the addition of the quench solution containing the LC-MS internal standard (IS) (labetalol). Following protein precipitation and centrifugation, 150 μl of supernatant was dried down and reconstituted with 250 μl water. All samples were analyzed by an LC-MS, and the analyte/internal standard peak area ratio (PAR) values were used for quantification. Disappearance of RDV or positive-control compounds was monitored over the incubation time period. Three experiments were conducted with two replicates in each experiment, and data are reported as averages from the three experiments.
(§3) In all studies apart from those with CES1 and CatA with enzyme inhibitors, samples (10-μl aliquots) were injected with a Thermo Scientific autosampler. The LC instrumentation consisted of a Thermo Scientific Dionex UltiMate 3000 RS pump, and the LC column was a Waters Acquity UPLC BEH C18 (1.7 μm particle size, 2.1 by 50 mm). Mobile phases A and B were water 99.9% (vol/vol) containing 0.1% (vol/vol) formic acid, and acetonitrile 99.9% (vol/vol) containing 0.1% (vol/vol) formic acid, respectively, pumped at 0.2 ml/minute. Elution was achieved by a series of linear gradients over 2.33 min followed by reequilibration for 2.57 min. The MS instrument was a Thermo Q Exactive Hybrid Quadrupole-Orbitrap operating in positive or negative ionization mode as appropriate. This was calibrated on a weekly basis, and data were processed with GMSU 8.4.66 software by Gubbs Inc. (Alpharetta, GA). Mass tolerance of 5 ppm was used.

SARS-CoV-2 = experiment: microbe, parasite or virus in culture; format: cell-based
CES1c = biological target: T2, CES1c (Homo sapiens, UniProt P23141); experiment: CES1c-catalyzed hydrolysis of RDV and control (substrate disappearance, LC-MS); format: in vitro ADME
T2 construct: purchased Corning Incorporated (Corning, NY); host or cells: baculovirus-infected insect cells (microsomal fraction, Supersomes)
T2 sequence (P23141 18-566 isoform P23141-3 limits assumed): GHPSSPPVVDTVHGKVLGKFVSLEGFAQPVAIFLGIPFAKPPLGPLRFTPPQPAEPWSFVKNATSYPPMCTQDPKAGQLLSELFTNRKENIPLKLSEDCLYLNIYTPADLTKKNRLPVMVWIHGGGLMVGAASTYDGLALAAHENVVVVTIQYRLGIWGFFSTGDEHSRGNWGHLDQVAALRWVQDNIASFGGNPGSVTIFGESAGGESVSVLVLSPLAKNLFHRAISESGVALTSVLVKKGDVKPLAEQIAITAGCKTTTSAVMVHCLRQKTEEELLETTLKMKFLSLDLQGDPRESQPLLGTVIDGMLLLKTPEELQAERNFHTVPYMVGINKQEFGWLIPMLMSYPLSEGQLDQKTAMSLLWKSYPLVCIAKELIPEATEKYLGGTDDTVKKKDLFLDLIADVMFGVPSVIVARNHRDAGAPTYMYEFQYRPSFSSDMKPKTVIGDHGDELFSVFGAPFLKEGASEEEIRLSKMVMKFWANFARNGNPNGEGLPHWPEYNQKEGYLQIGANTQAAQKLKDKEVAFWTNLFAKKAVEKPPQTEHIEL
Procedure: as §1, §2, §3

CatA = biological target: T3, CatA (Homo sapiens, UniProt P10619); experiment: CatA-catalyzed hydrolysis of RDV and control (substrate disappearance, LC-MS)
T3 sequence (P10619 29-326 limits assumed): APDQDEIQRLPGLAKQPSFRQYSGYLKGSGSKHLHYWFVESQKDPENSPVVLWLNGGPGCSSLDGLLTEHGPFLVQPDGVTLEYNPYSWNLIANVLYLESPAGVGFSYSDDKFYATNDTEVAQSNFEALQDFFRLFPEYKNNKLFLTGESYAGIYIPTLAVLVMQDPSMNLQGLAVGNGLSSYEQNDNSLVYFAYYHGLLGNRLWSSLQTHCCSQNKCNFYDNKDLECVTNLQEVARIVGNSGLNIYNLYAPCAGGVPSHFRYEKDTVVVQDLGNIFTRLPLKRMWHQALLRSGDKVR
T3 sequence (P10619 327-480 limits assumed): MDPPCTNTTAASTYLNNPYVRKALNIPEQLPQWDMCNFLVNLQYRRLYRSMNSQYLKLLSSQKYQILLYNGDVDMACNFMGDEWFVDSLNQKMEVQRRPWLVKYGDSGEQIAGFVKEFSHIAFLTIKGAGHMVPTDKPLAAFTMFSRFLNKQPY
Procedure: as §1
Following protein precipitation and centrifugation, 150 μl of supernatant was dried down and reconstituted with 250 μl water. […] Three experiments were conducted with two replicates in each experiment, and data are reported as averages from the three experiments.
as §3

[1] = times faster than positive control oseltamivir

Compound: CCC(CC)COC(=O)[C@H](C)N[P@](=O)(OC[C@H]1O[C@@](C#N)(c2ccc3c(N)ncnn23)[C@H](O)[C@@H]1O)Oc1ccccc1 [RDV, Remdesivir]
- half-life at 1 μM (CES1b; human, CES1b Supersomes (protein-enriched subcellular fraction), 1 μM substrate, CES 1.5 mg/ml, pH 7.4, 37°C, read-out: t1/2, CES1b (converted)): 9.7 min
- CES1b hydrolysis rate relative to oseltamivir (CES1b; [1]): 2 times
- Fold-RDV EC50, RDV + 0.5 μM telaprevir (SARS-CoV-2; EC50 of combination divided by EC50 of RDV (plus DMSO), 0.5 μM telaprevir): 1.70 ± 0.19
- Fold-RDV EC50, RDV + 2.5 μM telaprevir (SARS-CoV-2; EC50 of combination divided by EC50 of RDV (plus DMSO), 2.5 μM telaprevir): 2.27 ± 0.25
- Fold-RDV EC50, RDV + 10 μM telaprevir (SARS-CoV-2; EC50 of combination divided by EC50 of RDV (plus DMSO), 10 μM telaprevir): 2.9 and 2.91 ± 0.65
- EC50 (SARS-CoV-2; Severe acute respiratory syndrome coronavirus 2, 48 h, compound alone (plus DMSO), A549-hACE2 cells, 48 h): ~99 nM
- half-life at 1 μM (CES1c; human, CES1c Supersomes (protein-enriched subcellular fraction), 1 μM substrate, CES 1.5 mg/ml, pH 7.4, 37°C, read-out: t1/2, CES1c (converted)): 7.7 min
- CES1c hydrolysis rate relative to oseltamivir (CES1c; [1]): 4 times
- Activity for amidate ester cleavage, CatA (CatA; 1 μM substrate, 5 nM CatA, pH 6.5, 37°C): 74 ± 32 nmol/min/mg
- CatA hydrolysis rate relative to TAF (CatA; fold lower than hydrolysis rate of TAF): 3.4 fold
- half-life at 1 μM (CatA; human, recombinant CatA (activated with CatL), pH 6.5): 43 min
